Assay results taken from patent US20250215029A1 (Recludix Pharma, Inc., priority 2022, published 2025).

target: T1, pY705-STAT3 in PBMC (Homo sapiens, UniProt P40763); assay: MSD-pSTAT-PBMC Assay (pSTAT3, IL-6 stimulated); format: cell-based; details: PBMC, compound 3 hrs, then 10 ng/mL IL-6 for 10 min; Table 115; read-out: STAT3
T1 construct: Cryopreserved Peripheral Blood Mononuclear Cells (PBMC) are from AllCells; host or cells: cryopreserved PBMC
Method in brief: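 MSD electrochemiluminescence read-out: total STAT captured, probed with anti-pY641-STAT6 or anti-pY705-STAT3. Human PBMC, 3 h compound pretreatment, 10 min stimulation (IL-4 1 ng/mL or IL-6 10 ng/mL). Unstimulated signal subtracted, DMSO-normalized, variable-slope IC50.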

T1 sequence (P40763 whole entry): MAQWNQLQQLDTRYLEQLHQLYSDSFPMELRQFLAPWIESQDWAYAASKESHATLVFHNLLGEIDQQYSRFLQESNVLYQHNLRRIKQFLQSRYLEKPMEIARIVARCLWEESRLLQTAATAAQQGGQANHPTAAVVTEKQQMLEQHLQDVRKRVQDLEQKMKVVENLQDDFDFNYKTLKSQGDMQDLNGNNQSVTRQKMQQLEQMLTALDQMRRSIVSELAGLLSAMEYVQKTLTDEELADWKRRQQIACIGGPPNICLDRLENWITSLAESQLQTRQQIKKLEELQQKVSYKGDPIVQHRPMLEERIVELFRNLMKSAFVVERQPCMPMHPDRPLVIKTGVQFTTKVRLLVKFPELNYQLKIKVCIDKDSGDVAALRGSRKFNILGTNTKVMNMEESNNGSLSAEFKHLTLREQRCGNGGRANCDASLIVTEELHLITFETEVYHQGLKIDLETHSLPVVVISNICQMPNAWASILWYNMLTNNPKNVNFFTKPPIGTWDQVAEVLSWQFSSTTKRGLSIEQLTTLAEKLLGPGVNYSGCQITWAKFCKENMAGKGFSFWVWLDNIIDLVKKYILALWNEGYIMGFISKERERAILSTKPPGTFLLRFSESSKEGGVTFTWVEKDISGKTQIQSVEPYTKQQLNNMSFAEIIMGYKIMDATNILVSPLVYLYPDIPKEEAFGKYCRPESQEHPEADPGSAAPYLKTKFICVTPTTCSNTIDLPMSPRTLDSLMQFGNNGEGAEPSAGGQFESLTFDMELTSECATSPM

SMILES | IC50
CCCOC(=O)[C@H](C)N[P@](=O)(Oc1ccccc1)[C@@H](F)c1ccc2sc(C(=O)N[C@H]3CCC[C@H]4CC[C@@H](C(=O)N5CC(c6cnccc6N6CCOCC6)C5)N4C3=O)cc2c1 (single isomer, unassigned) [Compound 1046] | 100 to 1000 nM
CCC(CC)COC(=O)[C@H](C)NP(=O)(Cc1ccc2sc(C(=O)N[C@H]3CCC[C@H]4CC[C@@H](C(=O)N5CC(c6cccnc6)C5)N4C3=O)cc2c1)Oc1ccccc1 (stereo partly drawn) [Compound 258, 2-ethylbutyl (((2-(((3S,6S,9aS)-5-oxo-3-(3-(pyridin-3-yl)azetidine-1-carbonyl)octahydro-1H-pyrrolo[1,2-a]azepin-6-yl)carbamoyl)benzo [b]thiophen-5-yl)methyl)(phenoxy)phosphoryl)-L-alaninate] | < 100 nM
CCCOC(=O)[C@@H]1CCCN1P(=O)(Cc1ccc2sc(C(=O)N[C@H]3CCC[C@H]4CC[C@@H](C(=O)N5CC(c6cccnc6)C5)N4C3=O)cc2c1)N1CCC[C@H]1C(=O)OCCC [Compound 310, dipropyl (((2-(((3S,6S,9aS)-5-oxo-3-(3-(pyridin-3-yl)azetidine-1-carbonyl)octahydro-1H-pyrrolo[1,2-a]azepin-6-yl)carbamoyl)benzo [b]thiophen-5-yl)methyl)phosphoryl) (S)-di-L-prolinate] | 100 to 1000 nM
CCCOC(=O)[C@H](C)NP(=O)(Oc1ccccc1)[C@@H](F)c1ccc2sc(C(=O)N[C@H]3CCC[C@H]4CC[C@@H](C(=O)N5CC(c6cncc(F)c6OC)C5)N4C3=O)cc2c1 (stereo partly drawn) [Compound 1073, propyl (((R)-fluoro(2-(((3S,6S,9aS)-3-(3-(5-fluoro-4-methoxypyridin-3-yl)azetidine-1-carbonyl)-5-oxooctahydro-1H-pyrrolo[1,2-a]azepin-6-yl)carbamoyl)benzo [b]thiophen-5-yl)methyl)(phenoxy)phosphoryl)-L-alaninate] | 100 to 1000 nM

target: T2, pY641-STAT6 in PBMC (Homo sapiens, UniProt P42226); assay: MSD-pSTAT-PBMC Assay (pSTAT6, IL-4 stimulated); format: cell-based; details: PBMC, compound 3 hrs, then 1 ng/mL IL-4 for 10 min; Table 115; read-out: STAT6
T2 construct: Cryopreserved Peripheral Blood Mononuclear Cells (PBMC) are from AllCells; host or cells: cryopreserved PBMC
T2 sequence (P42226 1-847): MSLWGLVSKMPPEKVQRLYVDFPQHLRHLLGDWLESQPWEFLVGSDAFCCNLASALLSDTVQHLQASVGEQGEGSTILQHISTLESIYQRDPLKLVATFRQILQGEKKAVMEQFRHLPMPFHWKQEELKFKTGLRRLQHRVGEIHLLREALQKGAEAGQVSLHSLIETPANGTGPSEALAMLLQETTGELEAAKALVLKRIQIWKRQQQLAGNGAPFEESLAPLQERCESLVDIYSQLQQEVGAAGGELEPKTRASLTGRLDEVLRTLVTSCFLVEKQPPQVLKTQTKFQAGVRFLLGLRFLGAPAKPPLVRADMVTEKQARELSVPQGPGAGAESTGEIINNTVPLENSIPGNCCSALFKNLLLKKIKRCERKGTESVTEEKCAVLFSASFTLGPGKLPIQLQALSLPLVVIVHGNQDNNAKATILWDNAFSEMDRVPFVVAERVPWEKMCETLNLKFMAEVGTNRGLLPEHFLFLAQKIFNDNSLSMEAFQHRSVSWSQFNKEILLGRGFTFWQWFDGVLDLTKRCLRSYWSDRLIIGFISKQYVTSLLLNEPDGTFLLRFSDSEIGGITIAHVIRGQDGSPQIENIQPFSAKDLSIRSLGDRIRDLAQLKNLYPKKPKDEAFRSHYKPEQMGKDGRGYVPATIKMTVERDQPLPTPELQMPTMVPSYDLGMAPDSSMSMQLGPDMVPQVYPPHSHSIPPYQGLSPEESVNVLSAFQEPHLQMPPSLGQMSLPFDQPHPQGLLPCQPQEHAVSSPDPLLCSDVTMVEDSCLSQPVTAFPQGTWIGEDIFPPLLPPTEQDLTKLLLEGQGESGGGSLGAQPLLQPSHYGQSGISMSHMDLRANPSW
Source text: Cryopreserved Peripheral Blood Mononuclear Cells (PBMC) are from AllCells. Recombinant Human IL-4 and IL-6 are from Peprotech. Mouse monoclonal anti-STAT3 antibody, rabbit monoclonal anti-pY705-STAT3 antibody, rabbit monoclonal Anti-pY641-STAT6 antibody, and lysis buffer are from Cell Signaling Technology (CST). Mouse monoclonal anti-STAT6 antibody is from BioLegend. Assay plates, blocker, and anti-rabbit secondary antibody are from Meso Scale Discovery (MSD).
Cyropreserved PBMCs were thawed out and allowed to recover overnight in IMDM+10% heat-inactivated FBS prior to plating 50,000 (STAT3) or 25,000 (STAT6) cells per well in 96-well U-bottom tissue culture plates. Cells were treated with compound for 3 hrs, then stimulated with 10 ng/mL IL-6 (STAT3) or 1 ng/mL IL-4 (STAT6) for 10 min. Cells were then spun down and washed with ice-cold PBS prior to lysing the cell pellet with 1× lysis buffer (CST) with 1× HALT protease and phosphatase inhibitor cocktail (Thermo). Lysates were transferred to and incubated overnight at 4° C. with shaking in QuickPlex 96-well high bind assay plates (MSD) pre-coated overnight with 30 μL per well of 0.6 μg/mL mouse monoclonal anti-STAT3 antibody (STAT3) or 2 μg/mL mouse monoclonal anti-STAT6 antibody (STAT6) in 1× PBS, and pre-blocked for 1 hour with 3% Blocker-A (MSD). Captured protein in the assay plates were then washed and probed with 25 μL per well of […] rabbit monoclonal anti-pY705-STAT3 antibody (STAT3) or 0.18 μg/ml rabbit monoclonal Anti-pY641-STAT6 antibody (STAT6) in 1% Blocker-A for 1 hour at room temperature with shaking, then washed and probed with 25 ul per well of 1 ug/ml Sulfo-TAG Labeled Goat Anti-Rabbit Antibody (MSD) in 1% Blocker-A for 1 hour at room temperature with shaking. Assay plates were then washed and 150 μL of 1× Read Buffer-T (MSD) was added to each well prior to reading on an SQ120 MSD Plate Reader. Assay signal from each sample was subtracted by the signal from unstimulated control wells and normalized to DMSO control wells. IC50 values were calculated using Graph Pad Prism Dose-Response Nonlinear Regression with variable slope. For both pSTAT3 and pSTAT6 A=≤100 nM; B 100-1000 nM; C=>1000-3000 nM; D=>3 μM; and NT=Not Tested.

SMILES | IC50
COCCOC(=O)[C@H](C)NP(=O)(OCC(F)(F)F)[C@@H](F)c1ccc2sc(C(=O)N[C@H]3CCCC[C@H]4CC[C@@H](C(=O)N5CC(c6ccccc6)C(C#N)C56CC6)N4C3=O)cc2c1 (stereo in doubt) [Compound 377, 2-methoxyethyl (((R)-(2-(((3S,6S,10aS)-3-((6S,7R)-7-cyano-6-phenyl-4-azaspiro[2.4]heptane-4-carbonyl)-5-oxodecahydropyrrolo [1,2-a]azocin-6-yl)carbamoyl)benzo [b]thiophen-5-yl)fluoromethyl)(2,2,2-trifluoroethoxy)phosphoryl)-L-alaninate] | < 100 nM

same assay, conditions: STAT6, PBMC, compound 3 hrs, then 1 ng/mL IL-4 for 10 min; Table 115

SMILES | IC50
CCCOC(=O)[C@H](C)NP(=O)(Oc1ccccc1)C(F)c1ccc2sc(C(=O)N[C@H]3CCCC[C@H]4CC[C@@H](C(=O)N5C[C@H](c6cccnc6OC)[C@@H](C#N)C5)N4C3=O)cc2c1 (relative stereo) [Compound 322, propyl (((2-(((3S,6S,10aS)-3-((rel-trans)-3-cyano-4-(2-methoxypyridin-3-yl)pyrrolidine-1-carbonyl)-5-oxodecahydropyrrolo [1,2-a]azocin-6-yl)carbamoyl)benzo [b]thiophen-5-yl)fluoromethyl) (phenoxy)phosphoryl)-L-alaninate] | < 100 nM
CCCOC(=O)[C@H](C)NP(=O)(Oc1ccccc1)[C@@H](F)c1ccc2sc(C(=O)N[C@H]3CCC[C@H]4CC[C@@H](C(=O)N5C(=O)N(c6cccnc6)C(=O)C56CC6)N4C3=O)cc2c1 (stereo partly drawn) [Compound 469, propyl (((R)-(2-(((3S,6S,9aS)-3-(5,7-dioxo-6-(pyridin-3-yl)-4,6-diazaspiro[2.4]heptane-4-carbonyl)-5-oxooctahydro-1H-pyrrolo[1,2-a]azepin-6-yl)carbamoyl)benzo [b]thiophen-5-yl)fluoromethyl) (phenoxy)phosphoryl)-L-alaninate] | 100 to 1000 nM
CCCOC(=O)[C@H](COC)NP(=O)(Oc1ccccc1)[C@@H](F)c1ccc2sc(C(=O)N[C@H]3CCCC[C@H]4CC[C@@H](C(=O)N5C[C@@H](c6cccnc6)CC56CC6)N4C3=O)cc2c1 (stereo partly drawn) [Compound 384, propyl N-(((R)-fluoro(2-(((3S,6S,10aS)-5-oxo-3-((R)-6-(pyridin-3-yl)-4-azaspiro[2.4]heptane-4-carbonyl)decahydropyrrolo[1,2-a]azocin-6-yl)carbamoyl)benzo [b]thiophen-5-yl)methyl)(phenoxy)phosphoryl)-O-methyl-L-serinate] | < 100 nM
CCCOC(=O)[C@H](C)N[P@@](=O)(Oc1ccccc1)[C@@H](F)c1ccc2sc(C(=O)N[C@H]3CCCC[C@H]4CC[C@@H](C(=O)N5C[C@@H](c6cccnc6)CC56CC6)N4C3=O)cc2c1 (stereo in doubt) [Compound 460, propyl (((R)-fluoro(2-(((3S,6S,10aS)-5-oxo-3-((S)-6-(pyridin-3-yl)-4-azaspiro[2.4]heptane-4-carbonyl)decahydropyrrolo[1,2-a]azocin-6-yl)carbamoyl)benzo [b]thiophen-5-yl)methyl)(phenoxy)phosphoryl)-L-alaninate] | < 100 nM
CCCOC(=O)[C@H](C)NP(=O)(Oc1ccccc1)[C@@H](F)c1ccc2sc(C(=O)N[C@H]3CCCC[C@H]4CC[C@@H](C(=O)N5C[C@H](c6cccc(OC)c6)[C@@H](C#N)C56CC6)N4C3=O)cc2c1 (single isomer, unassigned) [Compound 335] | < 100 nM
CCCOC(=O)[C@H](C)NP(=O)(Oc1ccccc1)[C@H](F)c1ccc2sc(C(=O)N[C@H]3CC[C@H](N4CCC4)C[C@H]4CC[C@@H](C(=O)N5C[C@H](c6ccccc6)[C@@H](C#N)C56CC6)N4C3=O)cc2c1 (stereo partly drawn) [Compound 491, propyl (((S)-(2-(((3S,6S,9S,10aR)-9-(azetidin-1-yl)-3-((6S,7R)-7-cyano-6-phenyl-4-azaspiro[2.4]heptane-4-carbonyl)-5-oxodecahydropyrrolo [1,2-a]azocin-6-yl)carbamoyl)benzo [b]thiophen-5-yl)fluoromethyl) (phenoxy)phosphoryl)-L-alaninate] | < 100 nM
CCCOC(=O)[C@H](C)NP(=O)(Oc1ccccc1)C(F)c1ccc2sc(C(=O)N[C@H]3CCCC[C@H]4CC[C@@H](C(=O)N5C(=O)N(c6cncc(F)c6)C(=O)C56CC6)N4C3=O)cc2c1 (stereo partly drawn) [Compound 473, propyl ((fluoro(2-(((3S,6S,10aS)-3-(6-(5-fluoropyridin-3-yl)-5,7-dioxo-4,6-diazaspiro[2.4]heptane-4-carbonyl)-5-oxodecahydropyrrolo [1,2-a]azocin-6-yl)carbamoyl)benzo [b]thiophen-5-yl)methyl)(phenoxy)phosphoryl)-L-alaninate] | > 3000 nM
CCCOC(=O)[C@H](C)NP(=O)(Oc1ccccc1)[C@@H](F)c1ccc2sc(C(=O)N[C@H]3CCCC[C@H]4CC[C@@H](C(=O)N5C[C@H](c6cncc(Cl)c6)[C@@H](C#N)C56CC6)N4C3=O)cc2c1 (single isomer, unassigned) [Compound 370] | < 100 nM
